Reference: ChEMBL document CHEMBL1201862, “PubChem BioAssay data set” (2004)
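All cell lines were grown in 96-well plates and treated with compound for 48 hours. GI50 is the concentration that inhibits growth by half.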 Calls of active or inactive are those of the source. No stated cut-off is given here; in the data, active = GI50 up to about 1.1 µM and inactive = higher.

Tests used:
Assay in all cases: DTP human tumour cell line panel, 48 h
[1] = test system: UACC-62
[2] = test system: HL-60
[3] = test system: M14
[4] = test system: OVCAR-3
[5] = test system: SF-268
[6] = test system: HOP-62
[7] = test system: K562
[8] = test system: UACC-257
[9] = test system: RPMI-8226
[10] = test system: SF-295
[11] = test system: SN12C
[12] = test system: HCT-15
[13] = test system: CCRF-CEM
[14] = test system: SNB-75
[15] = test system: EKVX
[16] = test system: SK-MEL-28
[17] = test system: OVCAR-5
[18] = test system: HCT-116
[19] = test system: IGROV-1
[20] = test system: NCI-H460
[21] = test system: CAKI-1
[22] = test system: MDA-MB-435
[23] = test system: UO-31
[24] = test system: PC-3
[25] = test system: NCI-H226
[26] = test system: 786-0
[27] = test system: BT-549
[28] = test system: NCI-H23
[29] = test system: NCI/ADR-RES
[30] = test system: RXF 393
[31] = test system: A498
[32] = test system: MOLT-4
[33] = test system: ACHN
[34] = test system: TK-10
[35] = test system: SK-OV-3
[36] = test system: OVCAR-8
[37] = test system: COLO 205
[38] = test system: HT-29
[39] = test system: U-251
[40] = test system: SF-539
[41] = test system: MCF7
[42] = test system: SR
[43] = test system: MDA-MB-231
[44] = test system: Hs-578T
[45] = test system: SK-MEL-5
[46] = test system: SNB-19
[47] = test system: LOX IMVI
[48] = test system: SK-MEL-2
[49] = test system: SW-620
[50] = test system: Malme-3M
[51] = test system: KM12
[52] = test system: DU-145
[53] = test system: MDA-N
[54] = test system: A549
[55] = test system: OVCAR-4
[56] = test system: T47D
[57] = test system: NCI-H522

Measured: GI50

Fc1ccc(/C(=N/Cc2ccccc2)N2CCOCC2)cc1
> 100 µM: [12]
inactive: [1] > 100 µM | [2] > 100 µM | [3] > 100 µM | [4] > 100 µM | [5] > 100 µM | [6] > 100 µM | [7] > 100 µM | [8] > 100 µM | [9] > 100 µM | [10] > 100 µM | [11] > 100 µM | [13] > 100 µM | [14] > 100 µM | [15] > 100 µM | [16] > 100 µM | [17] > 100 µM | [18] > 100 µM | [19] > 100 µM | [20] > 100 µM | [21] > 100 µM | [22] > 100 µM | [23] 67.5 µM | [24] > 100 µM | [25] > 100 µM | [26] > 100 µM | [27] > 100 µM | [28] > 100 µM | [29] > 100 µM | [30] > 100 µM | [31] > 100 µM | [32] > 100 µM | [33] > 100 µM | [34] > 100 µM | [35] > 100 µM | [36] > 100 µM | [37] > 100 µM | [38] > 100 µM | [39] > 100 µM | [40] > 100 µM | [41] > 100 µM | [42] > 100 µM | [43] > 100 µM | [44] > 100 µM | [45] > 100 µM | [46] > 100 µM | [47] > 100 µM | [48] > 100 µM | [49] > 100 µM | [50] > 100 µM | [51] > 100 µM | [52] > 100 µM | [53] > 100 µM

O=S1(=O)OCCCOS(=O)(=O)C1(Br)Br
> 100 µM: [12]
inactive: [54] > 100 µM | [1] > 100 µM | [2] > 100 µM | [3] > 100 µM | [4] > 100 µM | [5] > 100 µM | [8] > 100 µM | [9] > 100 µM | [55] > 100 µM | [10] > 100 µM | [11] > 100 µM | [13] > 100 µM | [14] > 100 µM | [15] > 100 µM | [16] > 100 µM | [17] > 100 µM | [18] > 100 µM | [21] > 100 µM | [22] > 100 µM | [23] > 100 µM | [24] > 100 µM | [25] > 100 µM | [26] > 100 µM | [27] > 100 µM | [28] > 100 µM | [29] > 100 µM | [30] > 100 µM | [56] > 100 µM | [32] > 100 µM | [33] > 100 µM | [34] > 100 µM | [35] > 100 µM | [36] > 100 µM | [37] > 100 µM | [38] > 100 µM | [39] > 100 µM | [41] > 100 µM | [42] > 100 µM | [57] > 100 µM | [44] 62.2 µM | [45] > 100 µM | [46] > 100 µM | [47] > 100 µM | [48] > 100 µM | [49] > 100 µM | [50] > 100 µM | [51] > 100 µM | [52] > 100 µM | [53] > 100 µM
active: [6] 0.743 µM
